Data taken from patent US4012394A, “Indole derivatives” (Labaz, priority 1973, dated 1977).
Read-outs that look alike come from different tables or passages of the source.

How the values were obtained:
[1] = system: vena cave inferior of the rat (film of fibrin); assay: fibrinolytic activity, procedure of TODD adapted to the vena cave inferior of the rat; type: in vivo; settings: for change in vivo at 10 mg/kg: ip, 40 min, read-out: Fibrinolytic index in % (average increase in fibrinolytic effect compared with control animals); for fibrinolytic index: 100 mg/kg
Protocol: Forschumg, 20, 358, 1970. […]
Male rats weighing 150 to 200 g. and having fasted for 24 hours were divided into two groups. The animals of one group were given the above-indicated dose of the compound to be tested. […] After 40 minutes, the treated animals were sacrificed simultaneously with the control animals, the veins immediately removed, rinsed with physiological salt solution, frozen and cut into pieces having a thickness of 20 microns. On each piece, a film of fibrin was formed by the application of a bovine fibrinogenous solution, rich in plasminogen, and of a thrombin solution.
All the preparations were then fixed with a 10% solution of neutral formol, stained with haematoxylin of Harris and covered with gelatine.
Value = 0: The film of fibrin was intact.
Value = 1: The lysis zones in the endothelium were disseminated.
Value = 2:The lysis zones were larger and more or less joined.
Value = 3:The fibrin in contact with the endothelium was almost completely decomposed.
The fibrinolytic index represents the average of the values of the reactions obtained for each incubation.

carragheenin oedema = assay: JANSSEN test, carragheenin-induced paw oedema in the rat; type: in vivo; settings: for ED50: 3 h, read-out: AD50 (amount of compound required to ensure a 50% reduction of the oedema); for anti-inflammatory activity (in words): in vivo
Protocol: The anti-inflammatory activity of the compounds of the invention was determined on the rat by means of the JANSSEN test involving the use of carragheenin as inflammatory agent.
Into the plantar aponeurosis of the back paws of a group of female rats 0.05 ml. of a 1 % suspension of carragheenin was injected one hour after the compound to be tested had been administered by oral route. The size of the paw was measured by plethysmograph both before and three hours after administration of the carragheenin. The anti-inflammatory activity was calculated as the percentage of reduction of the resulting oedema as compared with control animals which had received the same dose of carragheenin without any anti-inflammatory agent. The AD50 was taken as the amount of compound required to ensure a 50% reduction of the oedema.

[2] = acute toxicity in the rat; settings: rat, in vivo
Protocol: (§1) A certain number of toxicity tests were also carried out on rats and mice and in particular acute toxicity tests.

in vivo = settings: rat, in vivo
Protocol: (§2) As another means of evaluating the utility of the compounds of the invention as anti-inflammatory agents in comparison with the three substances indicated above, trials were carried out on fasting rats in order to determine the degree to which the compounds studied produced gastric ulcers in the animals so treated.

gastric ulcers = assay: in vivo; settings: for irritant (ulcer-producing) action relative to Compound A: fasting rats, gastric ulcers, times as irritant as Compound A
Protocol: as §2

rats = assay: acute toxicity in the rat; settings: compared with indomethacin and/or phenylbutazone
Protocol: as §1

[3] = acute toxicity in the mouse; settings: in vivo, seven days of observation
[4] = 10 mg/kg, intraperitoneal, rat, 40 minutes

For `CC(C)c1c(C(=O)c2ccccn2)c2ccccc2n1C` [methyl / isopropyl / 2-pyridyl, (1-methyl-2-isopropyl-3-indolyl) (2-pyridyl) ketone], the change in vivo at 10 mg/kg [1, 4] was 105%.
`COc1ccc(-c2c(C(=O)c3cccnc3)c3ccccc3n2CCN(C)C)cc1` [[1-β-dimethylaminoethyl-2-(4-methoxy-phenyl)-3-indolyl] (3-pyridyl) ketone] gave a change in vivo at 10 mg/kg ([1]; Rattus norvegicus) of 133%.
For `CC(C)c1c(C(=O)c2ccncc2)c2ccccc2n1CCCN(C)C` [(1-γ-dimethylaminopropyl-2-isopropyl-3-indolyl) (4-pyridyl) ketone], the change in vivo at 10 mg/kg ([1]; Rattus norvegicus) was 30%.
In the case of `CN(C)CCCn1c(-c2ccccc2)c(C(=O)c2ccccn2)c2ccccc21` [(1-γ-dimethylaminopropyl-2-phenyl-3-indolyl) (2-pyridyl) ketone], the change in vivo at 10 mg/kg ([1]; Rattus norvegicus) is reported as 46%.
`CN(C)CCn1c(-c2ccc(Cl)cc2)c(C(=O)c2ccncc2)c2ccccc21` [[1-β-dimethylaminoethyl-2-(4-chloro-phenyl)-3-indolyl] (4-pyridyl) ketone] showed a change in vivo at 10 mg/kg ([1]; Rattus norvegicus) of 42%.
With `CC(C)c1c(C(=O)c2cccnc2)c2ccccc2n1CCN1CCCCC1` [piperidinoethyl / isopropyl / 3-pyridyl, (1-β-piperidinoethyl-2-isopropyl 3-indolyl) (3-pyridyl) ketone] the change in vivo at 10 mg/kg ([1]; Rattus norvegicus) was 77%.
`CN(C)CCn1c(-c2ccc(F)cc2)c(C(=O)c2cccnc2)c2ccccc21` [[1-β -dimethylaminoethyl-2-(4-fluoro-phenyl)-3-indolyl] (3-pyridyl) ketone] showed a change in vivo at 10 mg/kg ([1]; Rattus norvegicus) of 90%.
Work on `CC(C)c1c(C(=O)c2cccnc2)c2ccccc2n1CCCN1CCCCC1` [(1-γ-piperidinopropyl-2-isopropyl-3-indolyl) (3-pyridyl) ketone] yielded a change in vivo at 10 mg/kg ([1]; Rattus norvegicus) of 18%.
Work on `COc1ccc(-c2c(C(=O)c3ccncc3)c3ccccc3n2CCN(C)C)cc1` [[1-β-dimethylaminoethyl-2-(4-methoxy-phenyl)-3-indolyl] (4-pyridyl) ketone] yielded a change in vivo at 10 mg/kg ([1]; Rattus norvegicus) of 42%.
For `CN(C)CCCn1c(-c2ccc(F)cc2)c(C(=O)c2cccnc2)c2ccccc21` [[1-γ-dimethylaminopropyl-2-(4-fluoro-phenyl)-3-indolyl] (3-pyridyl) ketone], the change in vivo at 10 mg/kg ([1]; Rattus norvegicus) was 75%.
With `CC(C)c1c(C(=O)c2cccnc2)c2ccccc2n1CCN(C)C` [(1-β-dimethylaminoethyl-2-isopropyl-3-indolyl) (3-pyridyl) ketone] the change in vivo at 10 mg/kg ([1]; Rattus norvegicus) was 24%.
Work on `CC(C)c1[nH]c2ccccc2c1C(=O)c1cccnc1` [(2-isopropyl-3-indolyl) (3-pyridyl) ketone, reference compound] yielded a change in vivo at 10 mg/kg [1, 4] of 5%.
With `CN(C)CCn1c(-c2ccc(Cl)cc2)c(C(=O)c2cccnc2)c2ccccc21` [[1-β-dimethylaminoethyl-2-(4-chloro-phenyl)-3-indolyl] (3-pyridyl) ketone] the change in vivo at 10 mg/kg ([1]; Rattus norvegicus) was 40%.
With `COc1ccc2c(c1)c(CC(=O)O)c(C)n2C(=O)c1ccc(Cl)cc1` [Indomethacin] the ED50 (carragheenin oedema; Rattus norvegicus, po) was 4 mg/kg, the “anti-inflammatory activity (in words)” value (carragheenin oedema; rat) was “more powerful anti-inflammatory agent than Compound A” and the LD50 ([2]; po) was 22.5 mg/kg. The selectivity ratio (in vivo) was 1.3 and the “irritant (ulcer-producing) action relative to Compound A” value (gastric ulcers) was “sixty”.
Compound `CC(C)c1c(C(=O)c2cccnc2)c2ccccc2n1C` [Compound A, (1-methyl-2-isopropyl-3-indolyl) (3-pyridyl) ketone] has an ED50 (carragheenin oedema; Rattus norvegicus, po) of 15 mg/kg, an LD50 ([2]; ip) of 425 mg/kg and an LD50 ([2]; po) of 2400 mg/kg. The “toxicity (in words)” value (rats) was “less toxic than both indomethacin and phenylbutazone”, the LD50 at 168 h ([3]; ip, intraperitoneal route) was 3250 mg/kg and the LD50 at 168 h ([3]; po, intragastric route) was 900 mg/kg. The selectivity ratio (in vivo) was 20 and the “distance of irritant dose from anti-inflammatory dose (in words)” value (gastric ulcers; compared with indomethacin, phenylbutazone or acetylsalicylic acid) was “irritant dose is much farther removed from the anti-inflammatory dose”.
With `CCCc1c(C(=O)c2ccccn2)c2ccccc2n1CCCN(C)C` [(1-γ-dimethylaminopropyl-2-n-propyl-3-indolyl) (2-pyridyl) ketone] the change in vivo at 10 mg/kg ([1]; Rattus norvegicus) was 66%.
In the case of `CN(C)CCn1c(-c2ccc(F)cc2)c(C(=O)c2ccncc2)c2ccccc21` [[1-β-dimethylaminoethyl-2-(4-fluoro-phenyl)-3-indolyl] (4-pyridyl) ketone], the change in vivo at 10 mg/kg ([1]; Rattus norvegicus) is reported as 50%.
`CN(C)CCn1c(-c2ccccc2)c(C(=O)c2cccnc2)c2ccccc21` [(1-β-dimethylaminoethyl-2-phenyl-3-indolyl) (3-pyridyl) ketone] showed a change in vivo at 10 mg/kg ([1]; Rattus norvegicus) of 96%.
With `CC(=O)Oc1ccccc1C(=O)O` [Acetylsalicylic acid] the ED50 (carragheenin oedema; Rattus norvegicus, po) was 110 mg/kg, the “anti-inflammatory activity (in words)” value (carragheenin oedema; rat) was “less active than Compound A” and the selectivity ratio (in vivo) was 2. For the same compound, the “irritant (ulcer-producing) action relative to Compound A” value (gastric ulcers) was “one-and-a-half”.
In the case of `O=C(c1cccnc1)c1c(-c2ccccc2)[nH]c2ccccc12` [(2-phenyl-3-indolyl)(3-pyridyl) ketone, reference compound], the fibrinolytic index ([1]; rat) is reported as 20%.
For `CCCc1[nH]c2ccccc2c1C(=O)c1ccccn1` [(2-n-propyl-3-indolyl)(2-pyridyl) ketone, reference compound], the fibrinolytic index ([1]; rat) was 2%.
`CC(C)c1c(C(=O)c2ccncc2)c2ccccc2n1CCN(C)C` [(1-β-dimethylaminoethyl-2-isopropyl-3-indolyl) (4-pyridyl) ketone] showed a change in vivo at 10 mg/kg ([1]; Rattus norvegicus) of 44%.
`CC(C)c1[nH]c2ccccc2c1C(=O)c1ccncc1` [(2-isopropyl-3-indolyl)(4-pyridyl) ketone, reference compound] gave a change in vivo at 10 mg/kg [1, 4] of 10%.
`CCCn1c(C(C)C)c(C(=O)c2cccnc2)c2ccccc21` [n-propyl / isopropyl / 3-pyridyl, (1-n-propyl-2-isopropyl-3-indolyl) (3-pyridyl) ketone] gave a change in vivo at 10 mg/kg ([1]; Rattus norvegicus) of 25%.
Work on `CN(C)CCn1c(-c2ccccc2)c(C(=O)c2ccccn2)c2ccccc21` [(1-β-dimethylaminoethyl-2-phenyl-3-indolyl) (2-pyridyl) ketone] yielded a change in vivo at 10 mg/kg ([1]; Rattus norvegicus) of 50%.
With `CC(C)c1c(C(=O)c2cccnc2)c2ccccc2n1CCCN(C)C` [(1-γ-dimethylaminopropyl-2-isopropyl-3-indolyl) (3-pyridyl) ketone] the LD50 ([2]; po) was > 2000 mg/kg.
With `CCCc1c(C(=O)c2ccccn2)c2ccccc2n1CCN(C)C` [(1-β-dimethylaminoethyl-2-n-propyl-3-indolyl) (2-pyridyl) ketone] the change in vivo at 10 mg/kg ([1]; Rattus norvegicus) was 50%.
For `CC(C)c1c(C(=O)c2ccncc2)c2ccccc2n1C` [methyl / isopropyl / 4-pyridyl, (1-methyl-2-isopropyl-3-indolyl) (4-pyridyl) ketone], the change in vivo at 10 mg/kg [1, 4] was 165%.
`CC(C)c1c(C(=O)c2ccccn2)c2ccccc2n1CCN(C)C` [(1-β-dimethylaminoethyl-2-isopropyl-3-indolyl) (2-pyridyl) ketone] showed a change in vivo at 10 mg/kg ([1]; Rattus norvegicus) of 21%.
`COc1ccc(-c2c(C(=O)c3ccccn3)c3ccccc3n2CCN(C)C)cc1` [[1-β-dimethylaminoethyl-2-(4-methoxy-phenyl)-3-indolyl] (2-pyridyl) ketone] showed a change in vivo at 10 mg/kg ([1]; Rattus norvegicus) of 45%.
`CC(C)c1c(C(=O)c2ccccn2)c2ccccc2n1CCCN1CCCCC1` [(1-γ-piperidinopropyl-2-isopropyl-3-indolyl) (2-pyridyl) ketone] showed a change in vivo at 10 mg/kg ([1]; Rattus norvegicus) of 123%.
Work on `CN(C)CCCn1c(-c2ccccc2)c(C(=O)c2cccnc2)c2ccccc21` [(1-γ-dimethylaminopropyl-2-phenyl-3-indolyl) (3-pyridyl) ketone] yielded a change in vivo at 10 mg/kg ([1]; Rattus norvegicus) of 46%.
With `CCCCC1C(=O)N(c2ccccc2)N(c2ccccc2)C1=O` [Phenylbutazone] the ED50 (carragheenin oedema; oral, rat, one hour before carragheenin, oedema measured three hours after) was 22 mg/kg and the “anti-inflammatory activity (in words)” value (carragheenin oedema; rat) was “less active than Compound A”.
Work on `O=C(c1ccncc1)c1c(-c2ccc(Cl)cc2)n(CCN2CCCCC2)c2ccccc12` [[1-β-piperidinoethyl-2-(4-chloro-phenyl)-3-indolyl] (4-pyridyl) ketone] yielded a change in vivo at 10 mg/kg ([1]; Rattus norvegicus) of 50%.
